{"source": "EPA's ToxValDB 9.5 (doi:10.2903/j.efsa.2005.46r)", "key": {"Tagia sp.": {"test_system": "Tagia sp.", "conditions": "acute; duration: 14 days; mortality"}, "Typhlodromus pyri": {"test_system": "Typhlodromus pyri", "conditions": "not reported; mortality"}, "Mus musculus": {"test_system": "Mus musculus", "conditions": "chronic; duration: 18 months; M; body weight"}, "Colinus virginianus": {"test_system": "Colinus virginianus", "conditions": "acute; oral; mortality"}, "Bibionidae": {"test_system": "Bibionidae", "conditions": "chronic/long-term; duration: 28 days; development"}, "Apis mellifera": {"test_system": "Apis mellifera", "conditions": "acute, mortality"}, "Pimephales promelas": {"test_system": "Pimephales promelas", "conditions": "chronic/long-term; duration: 36 days; time to hatch"}, "Oncorhynchus mykiss": {"test_system": "Oncorhynchus mykiss", "conditions": "for NOEC: chronic/long-term"}, "Daphnia magna": {"test_system": "Daphnia magna", "conditions": "chronic/long-term; duration: 21 days; reproduction"}, "Chrysoperla externa": {"test_system": "Chrysoperla externa", "conditions": "not reported; mortality"}}, "data": [{"smiles": "CNC(=O)/C(=N/OC)c1ccccc1COc1cc(C)ccc1C", "note": "[Dimoxystrobin]", "values": [{"measurement": "LC50", "setting": "Tagia sp.", "value": 47.3, "unit": "mg/kg"}, {"measurement": "LEL", "setting": "Typhlodromus pyri", "value": 200, "unit": "g/ha"}, {"measurement": "LC50", "setting": "Rattus norvegicus; acute, oral, diet, mortality", "value": 5, "unit": "mg/kg-day"}, {"measurement": "NOAEL", "setting": "Rattus norvegicus; short-term, duration: 7 days, clinical chemistry", "value": 4, "unit": "mg/kg-day"}, {"measurement": "NOAEL", "setting": "Mus musculus", "value": 4, "unit": "mg/kg-day"}, {"measurement": "LD50", "setting": "Colinus virginianus", "value": "> 2000", "unit": "mg/kg"}, {"measurement": "NOEC", "setting": "Bibionidae", "value": 0.01, "unit": "mg/L"}, {"measurement": "LD50", "setting": "Apis mellifera; dermal", "value": "> 100", "unit": "µg/piece"}, {"measurement": "LD50", "setting": "Apis mellifera; duration: 48 hours, oral, unspecified", "value": "> 79.4", "unit": "µg/piece"}, {"measurement": "NOEC", "setting": "Pimephales promelas", "value": 0.016, "unit": "mg/L"}, {"measurement": "LC50", "setting": "Oncorhynchus mykiss; acute, duration: 96 hours, mortality", "value": 0.0434, "unit": "µg/mL"}, {"measurement": "NOEC", "setting": "Oncorhynchus mykiss; duration: 28 days, mortality", "value": 0.01, "unit": "mg/L"}, {"measurement": "NOEC", "setting": "Oncorhynchus mykiss; duration: 97 days, behavior", "value": 0.000316, "unit": "mg/L"}, {"measurement": "NOEC", "setting": "Anas platyrhynchos; reproductive", "value": 36, "unit": "mg/kg-day"}, {"measurement": "LC50", "setting": "Anas platyrhynchos; short-term, oral, feed, mortality", "value": "> 232", "unit": "mg/kg-day"}, {"measurement": "NOEC", "setting": "Daphnia magna", "value": 0.0125, "unit": "mg/L"}, {"measurement": "LEL", "setting": "Chrysoperla externa", "value": 200, "unit": "g/ha"}]}]}
